Patent US20110082329A1, “Modification of Sperm Motility and Its Storage Shelf Time” (priority 2008, published 2011)

How the values were obtained:
[1] = system: sea urchins (Lytechinus pictus) sperms; experiment: Sea urchin sperm motility by video microscopy / CASA; type: cell-based
[2] = system: sea urchins (Lytechinus pictus) sperms; experiment: as above; type: cell-based; settings: control = 100%
Experimental: Sperms originating from ripe sea urchins (Lytechinus pictus) showing genetic and functional similarity to human and animal sperms are used (R. Felix: Reproduction 129, 251-262 (2005).
(§1) Animals were washed by sequential immersion into 100 ml cold (approximately 5° C.) sperm storage buffer (SSB) pH 6.0. Used SSB composition: 50 mmol/L KCl, 5.0 mmol/L N-tris(hydroxymethyl)methyl-3-aminopropanesulphonic acid (TAPS), 425 mmol/L NaCl, 27 mmol/L MgCl2, 29 mmol/L MgSO4, 10 mmol/L CaCl2 and 2.4 mmol/L NaHCO3. Shedding of gametes was induced by intracoelomic injection of 2.0 ml cold 0.5 mol/L KCl through several sites on the peristomial membrane of the oral side. Sperm were collected by inverting male sea urchins over beakers containing approximately 100 ml cold MES sperm storage buffer (MSSB) pH 6.0. Used MSSB composition: 50 mmol/L KCl, 5.0 mM 2-[N-morpholino]ethanesulphonic acid (MES), 5.0 mmol/L TAPS, 425 mmol/L NaCl, 27 mmol/L MgCl2, 29 mmol/L MgSO4, 10 mmol/L CaCl2 and 2.4 mmol/L NaHCO3. A pool of sperm from several animals was made to minimize individual variations. Sperms were incubated in room temperature for 20 min. in 0.1-10 ml fractions diluted with 0.1-1000 ml activation buffer (ASW) pH 8.3. ASW composition: 50 mmol/L KCl, 5.0 mmol/L TAPS, 425 mmol/L NaCl, 27 mmol/L MgCl2, 29 mmol/L MgSO4, 10 mmol/L CaCl2, 2.4 mmol/L NaHCO3 and 1.0 mg/ml bovine serum albumin (BSA). The activation buffer contains the appropriate metal ions in a given concentration. […] Metal ions were used as Cl^− salts. Video microscopy was performed at room temperature (22° C.) using a Nikon Diaphot inverted microscope with 20× BM phase objective and 1× video adapter connected to a Dage CCD72 camera. […] The video signal was sent via a video time clock to a Panasonic VHS video recorder. Motility was recorded on multiple viewing fields for 15 sec per field until the recorded total sperm number reached 400. Video tapes were analyzed using CellTrack system. Measurements were carried out in triplicates. Sperm motility is expressed in %, where control values represent 100% (Bracho et al.: “A Method for Preparation, Storage and Activation of Large Populations of Immotile Sea Urchin Sperm”, BBRC 237, 59-62 (1997)).
(§2) Measurements are carried out using CASA (Computer Assisted Sperm Analysis) method within 12 hours following sperm collection or ejaculation.

[3] = system: human sperm from ejaculates of healthy donors; experiment: Human sperm motility by video microscopy / CASA; type: cell-based; settings: control = 100%
Experimental: as §1
Sperms originating from ejaculates (2.0-5.0 ml) of healthy donors are diluted with 2.0-1000 ml cold MSSB buffer following liquidification and homogenized without modification of motility. From this point, sample handling and motility measurement is carried out as described in example#1.
as §2

[4] = system: sea urchin sperm; experiment: Sea urchin sperm motility time course: storage in high Ni^2+, then 100-fold dilution; type: cell-based, Lytechinus pictus; settings: time point 0 = 100%
Experimental: as §1
a) Preparations of sea urchin sperm are produced as described in example 1. Motility measurements are carried out in predetermined time points as described in example#1 starting from time point 0. The activation buffer at time point 0 is supplemented with 20 mmol/L Ni^2+ as NiCl2. After 4 hours, sperm suspensions are diluted 100-fold with activation buffer, achieving 200 μmol/L final Ni^2+ concentration. Measurements of motility are carried out further. Sperm motility is expressed in %, where control values at time point 0 represent 100%.

| SMILES | motility (%) ([2]; 1 μmol/L metal ion) | motility (%) ([2]; 10 μmol/L metal ion) | motility (%) ([2]; 100 μmol/L metal ion) | motility (%) ([2]; 1 mmol/L metal ion) | motility (%) ([2]; 10 mmol/L metal ion) | motility (%) ([3]; 1 μmol/L metal ion) | motility (%) ([3]; 10 μmol/L metal ion) | motility (%) ([3]; 100 μmol/L metal ion) | motility (%) ([3]; 1 mmol/L metal ion) | motility (%) ([3]; 10 mmol/L metal ion) | other results |
| --- | --- | --- | --- | --- | --- | --- | --- | --- | --- | --- | --- |
| [Cd+2] [Cd^2+] |  |  |  |  |  |  |  |  |  |  | motility (%) ([1]; 3.5 μmol/L Cd^2+, control printed as 64.0): 49.1% |
| [Co+2] [Co^2+] | 108.6 | 118.2 | 127.5 | 101.1 | 92.9 | 106.2 | 112.7 | 122.5 | 98.2 | 91.0 |  |
| [Ni+2] [Ni^2+] | 111.4 | 127.3 | 132.0 | 98.6 | 85.2 | 105.7 | 126.9 | 129.5 | 93.2 | 88.9 | motility (%) ([4]; time 0:20, 20 mmol/L Ni^2+): 99.0%; motility (%) ([4]; time 1:00, 20 mmol/L Ni^2+): 85.7%; motility (%) ([4]; time 2:00, 20 mmol/L Ni^2+): 86.8%; motility (%) ([4]; time 3:00, 20 mmol/L Ni^2+): 81.6%; motility (%) ([4]; time 4:00, 20 mmol/L Ni^2+): 76.3%; motility (%) ([4]; time 4:20, after 100-fold dilution at 4 hours to 200 μmol/L Ni^2+): 102.6%; motility (%) ([4]; time 5:00, after 100-fold dilution at 4 hours to 200 μmol/L Ni^2+): 119.0%; motility (%) ([4]; time 6:00, after 100-fold dilution at 4 hours to 200 μmol/L Ni^2+): 123.5%; motility (%) ([4]; time 7:00, after 100-fold dilution at 4 hours to 200 μmol/L Ni^2+): 123.0%; motility (%) ([4]; time 8:00, after 100-fold dilution at 4 hours to 200 μmol/L Ni^2+): 120.6% |
| [Zn+2] [Zn^2+] |  |  |  |  |  |  |  |  |  |  | motility (%) ([1]; 16 μmol/L Zn^2+, control printed as 64.3): 51.0% |
